Assay results published in patent US6391338B1, “System for rendering substantially non-dissoluble bio-affecting agents bio-available” (Biovail Technologies Ltd., priority 1995, dated 2002).

Test: Ibuprofen concentration in 0.1 N HCl by HPLC UV
Format: physicochemical
Details: 1 g solid dispersion (=200 mg ibuprofen) or raw drug in 900 mL 0.1 N HCl, stirred at 100 rpm for 0.5 h
Protocol: (§1) Samples were taken and ibuprofen concentration was measured by HPLC UV.
as §1

ibuprofen concentration: 0.030 µg/mL
Compound: CC(C)Cc1ccc(C(C)C(=O)O)cc1 (stereo not shown) [ibuprofen]
